The record followed here is patent US11117892B2, “Pyrrolo-pyridine derivative compound, method for preparing same, and pharmaceutical composition containing same as active ingredient for prevention or treatment of protein kinase-related diseases” (DAEGU-GYEONGBUK MEDICAL INNOVATION FOUNDATION, priority 2017, dated 2021).

One assay addresses T1, DYRK1A (Homo sapiens (Human), UniProt Q13627). As to the kind of experiment: DYRK1A kinase inhibition, 33P-ATP filter-binding method. The assay is classed as biochemical. Particulars: IC50 grade; head prints μM, key nM. How it is done:
Particularly, a substrate was added to a basic reaction buffer (20 mM Hepes (pH 7.5), 10 mM MgCl2, 1 mM EGTA, 0.02% Brij35, 0.02 mg/ml BSA, 0.1 mM Na3VO4, 2 mM DTT, 1% DMSO), to which cofactors necessary for the reaction were added. Then, DYRK1A kinase was added thereto, followed by mixing well. Each compound of Examples was added thereto by using acoustic technology (Echo550; nanoliter range). The mixture was left at room temperature for 20 minutes and then ^33P-ATP (specific activity 10 mCi/ml) was added to initiate the reaction. After reacting at room temperature for 2 hours, spotting was performed on P81 exchange paper. Upon completion of the reaction, kinase activity was detected using a filter-binding method.
For orientation: IC50 means the point on the concentration scale where inhibition reaches its midpoint. Regarding `CCNc1cc(Nc2ccc(C(=O)N3CCOCC3)cc2OC)nc2[nH]cc(C(F)(F)F)c12` [Example 56, (4-((4-(ethylamino)-3-(trifluoromethyl)-1H-pyrrolo[2,3-b]pyridin-6-yl)amino)-3-methoxyphenyl) (morpholino)methanone], the half-inhibitory concentration (IC50) is under 0.01 µM. In turn, `CNc1cc(Nc2ccc(C(=O)N3CCN(C)CC3)cc2OC)nc2[nH]cc(C(F)(F)F)c12` [Example 63, (3-methoxy-4-((4-(methylamino)-3-(trifluoromethyl)-1H-pyrrolo[2,3-b]pyridin-6-yl)amino)phenyl) (4-methylpiperazin-1-yl)methanone] had an IC50 of under 0.01 µM. Consider `CCCNc1cc(Nc2ccc(C(=O)N3CCOCC3)cc2OC)nc2[nH]cc(C#N)c12` [Example 10, 6-((2-methoxy-4-(morpholine-4-carbonyl)phenyl)amino)-4-(propylamino)-1H-pyrrolo[2,3-b]pyridine-3-carbonitrile], for which the IC50 was under 0.01 µM. Compound `CCNc1cc(Nc2ccc(C(=O)N3CCOCC3)cc2OC)nc2[nH]cc(C#N)c12` [Example 2, 4-(ethylamino)-6-((2-methoxy-4-(morpholine-4-carbonyl)phenyl)amino)-1H-pyrrolo[2,3-b]pyridine-3-carbonitrile] returned an IC50 of under 0.01 µM.

As to `COCCNc1cc(Nc2ccc(C(=O)N3CCOCC3)cc2OC)nc2[nH]cc(C#N)c12` [Example 4, 6-((2-methoxy-4-(morpholine-4-carbonyl)phenyl)amino)-4-((2-methoxyethyl)amino)-1H-pyrrolo[2,3-b]pyridine-3-carbonitrile], the half-inhibitory concentration (IC50) was over 0.1 µM. In turn, `COCCNc1cc(Nc2cc(OC)c(OC)c(OC)c2)nc2[nH]cc(C#N)c12` [Example 5, 4-((2-methoxyethyl)amino)-6-((3,4,5-trimethoxyphenyl)amino)-1H-pyrrolo[2,3-b]pyridine-3-carbonitrile] registered an IC50 of 0.01 to 0.1 µM.

`COCCNc1cc(Nc2ccc(C(=O)N3CCC(N4CCN(C)CC4)CC3)cc2OC)nc2[nH]cc(C(F)(F)F)c12` [Example 67] showed an IC50 of under 0.01 µM. Consider `COCCNc1cc(Nc2ccc(C(=O)N3CCC(N4CCOCC4)CC3)cc2OC)nc2[nH]cc(C(F)(F)F)c12` [Example 65, (3-methoxy-4-((4-((2-methoxyethyl)amino)-3-(trifluoromethyl)-1H-pyrrolo[2,3-b]pyridin-6-yl)amino)phenyl) (4-morpholinopiperidin-1-yl)methanone], for which the IC50 was under 0.01 µM. Still for that read-out and setting: for `CNc1cc(Nc2ccc(C(=O)N3CCO[C@@H](C)C3)cc2OC)nc2[nH]cc(C#N)c12` [Example 23, (S)-6-((2-methoxy-4-(2-methylmorpholine-4-carbonyl)phenyl)amino)-4-(methylamino)-1H-pyrrolo[2,3-b]pyridine-3-carbonitrile] the value was over 0.1 µM.

Consider `CNc1cc(Nc2cc(F)c(C(=O)N3CCN(C)CC3)cc2OC)nc2[nH]cc(C(F)(F)F)c12` [Example 60, (2-fluoro-5-methoxy-4-((4-(methylamino)-3-(trifluoromethyl)-1H-pyrrolo[2,3-b]pyridin-6-yl)amino)phenyl) (4-methylpiperazin-1-yl)methanone], for which the IC50 was 0.01 to 0.1 µM.

As for `CNc1cc(Nc2ccc(C(=O)N3CCC(N4CCOCC4)CC3)cc2OC)nc2[nH]cc(C(F)(F)F)c12` [Example 59, (3-methoxy-4-((4-(methylamino)-3-(trifluoromethyl)-1H-pyrrolo[2,3-b]pyridin-6-yl)amino)phenyl) (4-morpholinopiperidin-1-yl)methanone], the concentration for half-maximal inhibition (IC50) is under 0.01 µM. The same measure, in the same setting: as for `CNc1cc(Nc2ccc(C(=O)N3CCC(N4CCN(C)CC4)CC3)cc2OC)nc2[nH]cc(C(F)(F)F)c12` [Example 61, (3-methoxy-4-((4-(methylamino)-3-(trifluoromethyl)-1H-pyrrolo[2,3-b]pyridin-6-yl)amino)phenyl) (4-(4-methylpiperazin-1-yl)piperidin-1-yl)methanone], the figure is under 0.01 µM; as for `CNc1cc(Nc2ccc(C(=O)N3CCOCC3)cc2OC)nc2[nH]cc(C#N)c12` [Example 1, 6-((2-methoxy-4-(morpholine-4-carbonyl)phenyl)amino)-4-(methylamino)-1H-pyrrolo[2,3-b]pyridine-3-carbonitrile], over 0.1 µM.

`CCNc1cc(Nc2cc(OC)c(OC)c(OC)c2)nc2[nH]cc(C(F)(F)F)c12` [Example 53, N^4-ethyl-3-(trifluoromethyl)-N^6-(3,4,5-trimethoxyphenyl)-1H-pyrrolo[2,3-b]pyridine-4,6-diamine] yielded a half-maximal inhibitory concentration (IC50) of 0.01 to 0.1 µM.

In turn, `CCNc1cc(Nc2ccc(C(=O)N3CCO[C@@H](C)C3)cc2OC)nc2[nH]cc(C#N)c12` [Example 27, (S)-4-(ethylamino)-6-((2-methoxy-4-(2-methylmorpholine-4-carbonyl)phenyl)amino)-1H-W pyrrolo[2,3-b]pyridine-3-carbonitrile] came in with a concentration for half-maximal inhibition (IC50) of over 0.1 µM.

A further assay has as its system Drosophila over-expressing minibrain specifically in wings. As to the kind of experiment: wing vein developmental abnormality, Drosophila over-expressing minibrain specifically in wings. The assay is classed as in vivo. Particulars: medium supplemented with compound at 10 μM. The source says:
To confirm the DYRK1A inhibitory effect of the compound according to the present invention in vivo, wings of the Drosophila model over-expressing minibrain gene specifically in wings were observed. First, in order to produce Drosophila over-expressing minibrain specifically in wings, the UAS-Minibrain transformed Drosophila was mated with the wing specific promoter MS1096-Gal4 transformed Drosophila, resulting in the production of F1 generation. Next, the effect of improving wing defects was confirmed to verify the DYRK1A inhibitory effect of the compound according to the present invention using the Drosophila DYRK1A/minibrain inhibitor discovery model. A medium supplemented with the compound at the concentration of 10 μM was prepared, in which embryos of Drosophila over-expressing minibrain specifically in wings were raised, followed by investigation of wing phenotype.
In the case of `CNc1cc(Nc2ccc(C(=O)N3CCN(C)CC3)cc2OC)nc2[nH]cc(C(F)(F)F)c12` [Example 63, (3-methoxy-4-((4-(methylamino)-3-(trifluoromethyl)-1H-pyrrolo[2,3-b]pyridin-6-yl)amino)phenyl) (4-methylpiperazin-1-yl)methanone], the “inhibition of the wing vein developmental abnormality” value turned out to be 43.8%. `CNc1cc(Nc2ccc(C(=O)N3CCOCC3)cc2OC)nc2[nH]cc(C(F)(F)F)c12` [Example 58, (3-methoxy-4-((4-(methylamino)-3-(trifluoromethyl)-1H-pyrrolo[2,3-b]pyridin-6-yl)amino)phenyl) (morpholino)methanone]: the “inhibition of the wing vein developmental abnormality” value stood at 47.9%. On the same count and under the same terms, as for `CNc1cc(Nc2ccc(N3CCN(C)CC3)cc2OC)nc2[nH]cc(C(F)(F)F)c12` [Example 62, N^6-(2-methoxy-4-(4-methylpiperazin-1-yl)phenyl)-N^4-methyl-3-(trifluoromethyl)-1H-pyrrolo[2,3-b]pyridine-4,6-diamine], the figure is 47.7%.

The next assay concerns the target T1, DYRK1A. The experiment in a line: DYRK1A kinase binding assay using LanthaScreen Eu.
Details: not given
(Time-resolved FRET reads energy transfer from a long-lived donor to a nearby acceptor.)
`COc1cc(C(=O)N2CCC(N3CCOCC3)CC2)ccc1Nc1cc(NC(C)C)c2c(C(F)(F)F)c[nH]c2n1` [Example 90, (4-(4-(isopropylamino)-3-(trifluoromethyl)-1H-pyrrolo[2,3-b]pyridin-6-ylamino)-3-methoxyphenyl) (4-morpholinopiperidin-1-yl)methanone] displayed a 50% inhibitory concentration (IC50) of 10 to 100 nM. Still for that read-out and setting: as for `COc1cc(C(=O)N2CCC(N3CCOCC3)CC2)ccc1Nc1cc(N[C@@H](CO)C(C)C)c2c(C(F)(F)F)c[nH]c2n1` [Example 91], the figure is 10 to 100 nM. On the same count and under the same terms, as for `CCNc1cc(Nc2cc(F)c(C(=O)NC3CCN(C(C)C)CC3)cc2OC)nc2[nH]cc(C(F)(F)F)c12` [Example 74], the figure is 10 to 100 nM; as for `COCCNc1cc(Nc2ccc(C(=O)N3CCOCC3)cc2OC)nc2[nH]cc(C(F)(F)F)c12` [Example 64, (3-methoxy-4-((4-((2-methoxyethyl)amino)-3-(trifluoromethyl)-1H-pyrrolo[2,3-b]pyridine-6yl)amino)phenyl) (morpholino)methanone], 10 to 100 nM.

As to `CCNc1cc(Nc2ccc(C(=O)N3CCC(N4CCN(C)CC4)CC3)cc2OC)nc2[nH]cc(C(F)(F)F)c12` [Example 70], the IC50 lay in the range of 10 to 100 nM. On to `COCCNc1cc(Nc2ccc(C(=O)N3CCN(C)CC3)cc2OC)nc2[nH]cc(C(F)(F)F)c12` [Example 66, (3-methoxy-4-((4-((2-methoxyethyl)amino)-3-(trifluoromethyl)-1H-pyrrolo[2,3-b]pyridin-6-yl)amino)phenyl) (4-methylpiperazin-1-yl)-methanone], for which the concentration for half-maximal inhibition (IC50) was 10 to 100 nM. Still for that read-out and setting: for `COc1cc(C(=O)N2CCOCC2)ccc1Nc1cc(NC2CC2)c2c(C(F)(F)F)c[nH]c2n1` [Example 95, (4-((4-(cyclopropylamino)-3-(trifluoromethyl)-1H-pyrrolo[2,3-b]pyridin-6-yl)amino)-3-methoxyphenyl) (morpholino) methanone] the value was 10 to 100 nM; for `COCCN(C)c1cc(Nc2ccc(C(=O)N3CCC(N4CCOCC4)CC3)cc2OC)nc2[nH]cc(C(F)(F)F)c12` [Example 88], 10 to 100 nM; for `COCCNc1cc(Nc2cc(F)c(C(=O)NC3CCN(C)CC3)cc2OC)nc2[nH]cc(C(F)(F)F)c12` [Example 73, 2-fluoro-5-methoxy-4-((4-((2-methoxyethyl)amino)-3-(trifluoromethyl)-1H-pyrrolo[2,3-b]pyridin-6-yl)amino) (1-methylpiperidin-4-yl)benzamide], 10 to 100 nM. `COCCN(C)c1cc(Nc2ccc(C(=O)N3CCOCC3)cc2OC)nc2[nH]cc(C(F)(F)F)c12` [Example 87] had an IC50 of 10 to 100 nM.
